This is an account of results in ChEMBL document CHEMBL5528055, “Discovery and Identification of Novel 5-Hydroxy-4H-benzo[1,4]oxazin-3-one Derivatives as Potent β2-Adrenoceptor Agonists through Structure-Based Design, Synthesis, and Biological Evaluation” (J Med Chem, 2024).

Usually Emax stands for the size of the effect at its maximum, as opposed to the concentration needed. The term EC50 denotes the midpoint of the concentration-response curve. High values mean lower potency in that assay, low ones higher potency in that assay. Usually half-life stands for the time needed for the level to fall by half in the phase considered. A lower half-life goes with rapid decline. Broadly, the Tmax is the time from dosing to the highest level. As a reminder, the Cmax is the peak of the concentration-time curve. The term AUC(0-t) denotes exposure summed from dosing to a finite time, without extrapolation to infinity. Lower therefore signals low exposure. For orientation: AUC means concentration integrated over time. A lower AUC goes with less exposure. In general, MRT refers to the average time that molecules of a dose stay in the body. Usually MRT inf stands for the average time that molecules of a dose stay in the body. One may read the clearance as the volume of plasma or blood freed of the substance per unit of time. The low end stands for inefficient removal, the high end for efficient removal.

For one series, the system named is Trachea. The experiment in a line: Induction of smooth muscle relaxation in male Dunkin-Hartley guinea pig trachea strips assessed as maximal relaxation of histamine phosphate-induced guinea pig airway smooth muscle contraction relative to control. The note with it: Cavia porcellus.
Series [1] addresses Beta-2 adrenergic receptor (Homo sapiens, UniProt P07550).
Description: Agonist activity at human beta2 adrenoceptor expressed in HEK293 cells assessed as induction of accumulation of cAMP by HTRF assay
In series [2] the target is Beta-1 adrenergic receptor (Homo sapiens, UniProt P08588).
Sequence of Beta-1 adrenergic receptor (P08588 whole entry): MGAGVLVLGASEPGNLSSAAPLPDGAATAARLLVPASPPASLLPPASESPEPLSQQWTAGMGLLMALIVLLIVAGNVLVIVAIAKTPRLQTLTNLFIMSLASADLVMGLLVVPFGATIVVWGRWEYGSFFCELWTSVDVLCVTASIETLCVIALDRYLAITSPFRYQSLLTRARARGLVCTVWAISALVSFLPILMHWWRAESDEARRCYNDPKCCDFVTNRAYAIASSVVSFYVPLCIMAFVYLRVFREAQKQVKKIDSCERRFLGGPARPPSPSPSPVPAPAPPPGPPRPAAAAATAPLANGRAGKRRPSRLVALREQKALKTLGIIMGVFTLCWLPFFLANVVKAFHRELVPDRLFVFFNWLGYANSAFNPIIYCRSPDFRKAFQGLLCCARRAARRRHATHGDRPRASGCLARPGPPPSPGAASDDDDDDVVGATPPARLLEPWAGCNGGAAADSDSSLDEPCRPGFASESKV
Description: Agonist activity at human beta1 adrenoceptor expressed in HEK293 cells assessed as induction of accumulation of cAMP by HTRF assay
The nature of series [3]: Half life in male Balb/c mouse at 2 mg/kg, iv measured upto 24 hrs by LC-MS/MS analysis. The series is classed as ADME, organism-based. Conditions: in vivo.
Series [4] is described as follows: Half life in male Balb/c mouse at 10 mg/kg, po measured upto 24 hrs by LC-MS/MS analysis. Type of series: ADME, organism-based. Conditions: in vivo.
Series [5] is described as follows: Tmax in male Balb/c mouse at 10 mg/kg, po measured upto 24 hrs by LC-MS/MS analysis. Type of series: ADME, organism-based. Conditions: in vivo.
Series [6] is described as follows: Cmax in male Balb/c mouse at 10 mg/kg, po measured upto 24 hrs by LC-MS/MS analysis. Type of series: ADME, organism-based. The note with it: in vivo.
Series [7] in a line: AUC (0 to t) in male Balb/c mouse at 10 mg/kg, po measured upto 24 hrs by LC-MS/MS analysis. Type of series: ADME, organism-based. The note with it: in vivo.
Series [8] can be described thus: AUC (0 to infinity) in male Balb/c mouse at 10 mg/kg, po measured upto 24 hrs by LC-MS/MS analysis. The note with it: in vivo. Type of series: ADME, organism-based.
A short description of series [9]: MRT in male Balb/c mouse at 10 mg/kg, po measured upto 24 hrs by LC-MS/MS analysis. Conditions: in vivo. Type of series: ADME, organism-based.
A short description of series [10]: MRT (0 to infinity) in male Balb/c mouse at 10 mg/kg, po measured upto 24 hrs by LC-MS/MS analysis. Type of series: ADME, organism-based. The note with it: in vivo.
Series [11] in a line: Oral bioavailability in male Balb/c mouse at 10 mg/kg measured upto 24 hrs by LC-MS/MS analysis. Type of series: ADME, organism-based. Conditions: in vivo.
A short description of series [12]: Tmax in male Balb/c mouse at 2 mg/kg, iv measured upto 24 hrs by LC-MS/MS analysis. Conditions: in vivo. The series is classed as ADME, organism-based.
Series [13] can be described thus: Cmax in male Balb/c mouse at 2 mg/kg, iv measured upto 24 hrs by LC-MS/MS analysis. The note with it: in vivo. The series is classed as ADME, organism-based.
A short description of series [14]: AUC (0 to t) in male Balb/c mouse at 2 mg/kg, iv measured upto 24 hrs by LC-MS/MS analysis. Type of series: ADME, organism-based. The note with it: in vivo.
The nature of series [15]: AUC (0 to infinity) in male Balb/c mouse at 2 mg/kg, iv measured upto 24 hrs by LC-MS/MS analysis. Conditions: in vivo. The series is classed as ADME, organism-based.
The nature of series [16]: MRT in male Balb/c mouse at 2 mg/kg, iv measured upto 24 hrs by LC-MS/MS analysis. Type of series: ADME, organism-based. The note with it: in vivo.
A short description of series [17]: MRT (0 to infinity) in male Balb/c mouse at 2 mg/kg, iv measured upto 24 hrs by LC-MS/MS analysis. The series is classed as ADME, organism-based. Conditions: in vivo.
Series [18] is described as follows: Apparent volume of distribution in male Balb/c mouse at 2 mg/kg, iv measured upto 24 hrs by LC-MS/MS analysis. Type of series: ADME, organism-based. Conditions: in vivo, read-out: Vd(app).
A short description of series [19]: Clearance in male Balb/c mouse at 2 mg/kg, iv measured upto 24 hrs by LC-MS/MS analysis. Type of series: ADME, organism-based. Conditions: in vivo.

Structures are written as SMILES.

Sequence of Beta-2 adrenergic receptor (P07550 whole entry): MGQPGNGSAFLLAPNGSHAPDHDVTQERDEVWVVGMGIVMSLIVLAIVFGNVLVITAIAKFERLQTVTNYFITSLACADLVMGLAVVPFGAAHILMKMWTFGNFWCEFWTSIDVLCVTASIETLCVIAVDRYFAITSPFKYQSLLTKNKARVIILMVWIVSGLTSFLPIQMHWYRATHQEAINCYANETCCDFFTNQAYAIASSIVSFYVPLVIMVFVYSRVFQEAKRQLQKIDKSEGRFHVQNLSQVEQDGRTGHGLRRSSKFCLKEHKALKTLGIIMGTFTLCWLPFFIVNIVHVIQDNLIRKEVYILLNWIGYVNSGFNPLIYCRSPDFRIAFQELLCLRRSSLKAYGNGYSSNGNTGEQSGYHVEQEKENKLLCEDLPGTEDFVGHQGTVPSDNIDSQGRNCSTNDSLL

Regarding `CCCNCC(O)c1ccc(O)c2c1OCC(=O)N2` (stereo unspecified), in the series with Trachea, the Emax amounted to 60.5%. Also, the EC50 is 0.0316 nM in [1] and 14.5 nM in [2].
Take `O=C1COc2c(C(O)CNCCCc3ccccc3F)ccc(O)c2N1` (stereo unspecified): the Emax in the series with Trachea is 90.5%. Also, the EC50 is 0.00479 nM in series [1] and 0.17 nM in series [2].
In turn, `COc1cccc(CCNCC(O)c2ccc(O)c3c2OCC(=O)N3)c1` (stereo unspecified) gave an EC50 in series [1] of 0.00871 nM.
As for `O=C1COc2c(C(O)CNCCCc3ccc(C(F)(F)F)cc3)ccc(O)c2N1` (stereo unspecified), the Emax in the series on Trachea was 132%. In addition, the EC50 in [1] is 0.0055 nM; in series [2], 1.2 nM.
Turning to `O=C1COc2c(C(O)CNCCCc3ccccc3)ccc(O)c2N1` (stereo unspecified), the Emax with Trachea was 237%. Also, the EC50 in [1] is 0.00589 nM; in [2], 0.257 nM.
Consider `O=C1COc2c(C(O)CNCCCc3cccc(F)c3)ccc(O)c2N1` (stereo unspecified), for which the Emax with Trachea came out at 126%. The response in series [1] was half-maximal at 0.00468 nM (EC50).
In series [1], `COc1cccc(CCCNCC(O)c2ccc(O)c3c2OCC(=O)N3)c1` (stereo unspecified) showed an EC50 of 0.00794 nM.
For `COc1ccccc1CCCNCC(O)c1ccc(O)c2c1OCC(=O)N2` (stereo unspecified), in the series on Trachea, the Emax was 109%. The EC50 is 0.00457 nM in [1] and 0.178 nM in series [2].
In the case of `O=C1COc2c(C(O)CNCCc3cccc(F)c3)ccc(O)c2N1` (stereo unspecified), the Emax in the series with Trachea stood at 94.9%. The EC50 in series [1] was 0.024 nM; in [2], 1.38 nM.
With `O=C1COc2c(C(O)CNCCC(c3ccccc3)c3ccccc3)ccc(O)c2N1` (stereo unspecified), the Emax in the series with Trachea stood at 63.3%. The concentration giving a half-maximal response (EC50) in [1] is 0.0468 nM; in series [2], 2.24 nM.
In the case of `O=C1COc2c(C(O)CNCCCc3cccc(O)c3)ccc(O)c2N1` (stereo unspecified), in the series on Trachea, the Emax turned out to be 87.4%. Also, the EC50 is 0.00437 nM in series [1] and 0.138 nM in series [2].
With `COc1ccc(CCCNCC(O)c2ccc(O)c3c2OCC(=O)N3)cc1` (stereo unspecified), the Emax in the series with Trachea was 74.2%. For the same compound, the EC50 in [1] is 0.0038 nM; in [2], 0.513 nM.
On the same counts, the results for `O=C1COc2c(C(O)CNCCCc3ccc(F)cc3)ccc(O)c2N1` (stereo unspecified) are 69.5%, 0.0038 nM and 0.245 nM.
Regarding `CC(C)NCC(O)c1ccc(O)c2c1OCC(=O)N2` (stereo unspecified), the EC50 in series [2] is 1.82 nM.
In series [2], `Cc1ccccc1CCCNCC(O)c1ccc(O)c2c1OCC(=O)N2` (stereo unspecified) gave an EC50 of 0.324 nM.
Turning to `O=C1COc2c(C(O)CNCCc3ccccc3F)ccc(O)c2N1` (stereo unspecified), the Emax in the series on Trachea is 128%. The EC50 in [1] was 0.0115 nM; in series [2], 4.07 nM.
On to `O=C1COc2c(C(O)CNCCc3cccc(Cl)c3)ccc(O)c2N1` (stereo unspecified), for which the maximal response (Emax) in the series with Trachea was 65.3%. Also, the concentration for a half-maximal effect (EC50) in series [1] is 0.0269 nM; in [2] it was 3.72 nM.
The compound `O=C1COc2c(C(O)CNCCOc3ccccc3)ccc(O)c2N1` (stereo unspecified) showed a concentration giving a half-maximal response (EC50) in series [2] of 1.7 nM.
Consider `COc1ccccc1CCNCC(O)c1ccc(O)c2c1OCC(=O)N2.Cl` (stereo unspecified), for which the half-life in series [3] is 5.21 h; in series [4] it was 3.77 h. Moreover, the figures for the Tmax in series [5] and in series [12] were 5.33 h and 4.98 min, respectively. In addition, the Cmax in series [6] stood at 24 ng/mL; in series [13], 416 ng/mL. Also, the values for the AUC(0-t) at 24 h in series [7] and in [14] were 294 ng·h/mL and 329 ng·h/mL, respectively. Also, the exposure (AUC) stood at 306 ng·h/mL in series [8] and 338 ng·h/mL in series [15]. Moreover, the values for the MRT in [9] and in series [16] were 5.92 h and 2.67 h, respectively. Further, the MRT inf in series [10] came out at 6.98 h; in series [17], 3.43 h. Also, in series [11], the F is listed as 7.65%. Besides, the Vd in series [18] came out at 44 L/kg. In series [19], the clearance was 102 mL/min/kg.
The compound `CCCCCCNCC(O)c1ccc(O)c2c1OCC(=O)N2` (stereo unspecified) had an EC50 in series [2] of 2.19 nM.
On to `Cc1ccc(CCCNCC(O)c2ccc(O)c3c2OCC(=O)N3)cc1` (stereo unspecified), for which a half-maximal response in series [1] (EC50) required 0.00759 nM.
For `O=C1COc2c(C(O)CNCCc3ccccc3Cl)ccc(O)c2N1` (stereo unspecified), in [2], the EC50 is 5.37 nM.
Regarding `CCCCNCC(O)c1ccc(O)c2c1OCC(=O)N2` (stereo unspecified), the maximum response (Emax) with Trachea stood at 53.3%. Moreover, the EC50 was 0.0257 nM in [1] and 16.6 nM in [2].
With `O=C1COc2c(C(O)CNCCCc3ccc(O)cc3)ccc(O)c2N1` (stereo unspecified), the Emax in the series with Trachea was found to be 181%. For the same compound, the EC50 in series [1] is 0.00575 nM; in series [2], 0.12 nM.
The matching figures for `O=C1COc2c(C(O)CNC3CC3)ccc(O)c2N1` (stereo unspecified): 123%, 0.0224 nM and 1.32 nM.
`O=C1COc2c(C(O)CNCCc3ccccc3)ccc(O)c2N1` (stereo unspecified) showed a concentration giving a half-maximal response (EC50) in series [2] of 1.91 nM.
Consider `COc1ccc(CCNCC(O)c2ccc(O)c3c2OCC(=O)N3)cc1` (stereo unspecified), for which, in the series on Trachea, the Emax amounted to 59.6%. In addition, the EC50 in series [1] was 0.0132 nM; in [2], 2.19 nM.
In [2], `O=C1COc2c(C(O)CNCCCc3cc(F)cc(F)c3)ccc(O)c2N1` (stereo unspecified) gave a concentration for a half-maximal effect (EC50) of 0.105 nM.
Take `O=C1COc2c(C(O)CNCCCCc3ccccc3)ccc(O)c2N1` (stereo unspecified): the EC50 in [2] was 0.309 nM.
`COc1cc(CCCNCC(O)c2ccc(O)c3c2OCC(=O)N3)cc(OC)c1OC` (stereo unspecified): in the series on Trachea, the Emax stood at 142%. The results for the EC50 in series [1] and in [2] were 0.0537 nM and 1.58 nM, respectively.
For `CC(C)(C)NCC(O)c1ccc(O)c2c1OCC(=O)N2` (stereo unspecified), the EC50 in series [2] was 2.14 nM.
The compound `O=C1COc2c(C(O)CNCCCc3ccccc3O)ccc(O)c2N1` (stereo unspecified) gave an EC50 in [2] of 0.129 nM.
Consider `O=C1COc2c(C(O)CNCCc3ccc(F)cc3)ccc(O)c2N1` (stereo unspecified), for which the Emax with Trachea was 76.7%. Besides, the EC50 in [1] was 0.00537 nM; in [2] it was 3.72 nM.
In series [2], `O=C1COc2c(C(O)CNCCCc3cccc(C(F)(F)F)c3)ccc(O)c2N1` (stereo unspecified) had a half-maximal effective concentration (EC50) of 0.513 nM.
In the case of `O=C1COc2c(C(O)CNCCc3ccc(Cl)cc3)ccc(O)c2N1` (stereo unspecified), the Emax in the series with Trachea worked out at 86.7%. Moreover, the EC50 was 1.32 nM in series [1] and 1000 nM in series [2].
Regarding `Cc1ccccc1CCNCC(O)c1ccc(O)c2c1OCC(=O)N2` (stereo unspecified), the Emax with Trachea was 135%. Moreover, the EC50 in [1] is 0.0282 nM; in series [2], 0.912 nM.
`Cc1cccc(CCCNCC(O)c2ccc(O)c3c2OCC(=O)N3)c1` (stereo unspecified) showed an EC50 in series [2] of 0.245 nM.
Regarding `CC(C)NCC(O)c1ccc(O)c(O)c1` (stereo unspecified) [ISOPROTERENOL], the Emax with Trachea worked out at 141%.
In series [2], `COc1ccc(CC(C)(C)NC[C@H](O)c2cc(O)cc3c2OCC(=O)N3)cc1` [OLODATEROL] showed an EC50 of 33.9 nM.
